In patent publication US20130064859A1, “COMBINATORIAL VITAMIN D AND PROBIOTIC THERAPY FOR INFLAMMATORY BOWEL DISEASE” (priority 2011, published 2013):

How the values were obtained:
CD4+Foxp3+ T cells = test: mouse DC / CD4+ T cell co-culture, Foxp3+ Treg induction; format: cell-based, mice; settings: FIG. 6B
Experimental: In a particular example of the method of paragraph, mouse dendritic cells (DCs) are treated with PSA or PSA and vitamin D metabolite for 16-18 hrs, washed and co-cultured with naïve CD4+ T cells. After 4 days, cells were collected and stained for Foxp3. Percentage of Foxp3+ CD4+ T cells were determined by flow cytometry.
(§1) (A) Mouse DCs were stimulated with PSA (or PBS control), and Cyp27b1 transcript levels were measured by qRT-PCR. PSA induces the expression of the vitamin D-activating enzyme from WT, but not TLR2−/− DCs. (B) Mouse DCs were treated with PSA, washed and co-cultured with naïve CD4+ T cells. After 4 days, PSA increased Foxp3+ Treg proportions (see % in box). The vitamin D metabolite 25D augmented PSA-induced Tregs. (C) Human monocytes were treated with PSA or vehicle, washed and co-cultured with CD4+ T cells from PBMCs of the same donor. The MFI for Foxp3 among CD4+CD25+ T cells is shown with or without TGFβ. Collectively, we propose a model whereby PSA signals through TLR2 on DCs to induce expression of Cyp27b1, which converts 25D to 1,25D. The vitamin D receptor (VDR) in T cells responds to 1,25 D, and along with other PSA-specific signals, mediated the development of Treg cells (see diagram in FIG. 1).
(§2) Vitamin D enhances PSA-mediated induction of mouse and human Tregs. […]

[1] = system: Foxp3 expression in human Tregs; test: human monocyte / CD4+ T cell co-culture, Foxp3 MFI; format: cell-based; settings: FIG. 6C
Experimental: In a particular example of the method of paragraph, in vitro, human monocytes are treated with PSA or vehicle for 16-18 hrs, washed and co-cultured with CD4+ T cells from PBMCs of the same donor with or without TGFb. After 2 days, cells were collected and stained for Foxp3. MFI of Foxp3 among CD4+CD25+ T cells was determined by flow cytometry.
as §1, §2

TNBS colitis = test: TNBS experimental colitis in mice treated with PSA; format: in vivo; settings: for IL-10 expression in MLNs (qRT-PCR) / IL-17 levels in MLNs (qRT-PCR): FIG. 3C
Experimental: (§3) (A) Mice were treated with PSA or PBS. Analysis of the percentage of Foxp3+ cells within the CD4+CD25+ population in the MLNs is shown, indicated by the numbers in the top right quadrant. (B) CD4+CD25+ cells were purified from the MLNs of colitic PBS or PSA-treated mice and incubated with CFSE-pulsed CD4+CD25-responder cells in an in vitro suppression assay. Numbers indicate the percentage of cells undergoing at least one cellular division at 2 different ratios of effector T cells (Teff) and regulatory T cells (Treg). Top panels show results from healthy mice (−TNBS). (C) Disease scores for mice pre- and post-treated with PSA during TNBS colitis were assessed by a blinded pathologist. P values determined by a two-tailed Mann-Whitney U-test. **p value of <0.01. (D) Colons from mice were fixed, sectioned and stained with H&E to determine disease severity. Representative sections are shown.
(A) C57B1/6 WT or TLR2−/− animals were gavaged with purified PSA (or PBS) prior to TNBS administration. 5-6 days after onset of TNBS colitis, colons of animals were fixed, sectioned and H&E stained. Representative histological sections are shown. […] Each symbol represents a separate animal. *p value of <0.05. NS, not significant. (C) RNA was extracted from the MLNs of indicated mice either treated with PBS or PSA, and the expression levels of IL-10 and IL-17A were assayed by qRT-PCR. (D) Percentages of CD4+CD25+Foxp3+ T cells in the MLNs of TLR2−/−mice treated with PBS or PSA. Plots are gated on CD4+ T cells. Note: PSA increases CD4+CD25+Foxp3+ Treg proportions in WT mice by ˜25%.
B. fragilis induces Tregs that prevent and cure experimental IBD. Maintenance of homeostasis toward the intestinal microbial milieu is critical to the preservation of health, and defects in mucosal tolerance lead to disorders such as IBD. In animal models of IBD, intestinal inflammation is suppressed by various subsets of regulatory T cells (Tregs). Tregs emerge from the thymus and are marked by expression of CD4, CD25 and the transcription factor Foxp3 (Forkhead Box transcription factor for Treg differentiation). We have recently reported that the prominent human commensal, B. fragilis, directs the development of Foxp3+ Tregs in the gut during protection from experimental colitis in animal models. […] The Mazmanian laboratory employs 2 models of experimental colitis: 1) the T cell transfer model whereby various T cell subsets are transferred into RAG−/− animals allowing for the functional study of both pro- and anti-inflammatory T cells; 2) the TNBS (2,4,6-trinitrobenzene sulfonic acid) model, where rectal treatment of animals with an immunogenic chemical results in gut inflammation.
(§4) Here, we present data from the TNBS model, representative of results similar to the T cell transfer model. […] During protection from colitis (TNBS+PSA), PSA increases in-the percentage of Foxp3+ cells within the CD4+CD25+ compartment of the MLNs. […] The suppressive capacity of Tregs during PSA-mediated protection from intestinal inflammation was determined by in vitro suppression assays.
To examine if PSA can prevent and cure established colitis, animals were induced for TNBS colitis, and groups were either treated with vehicle (TNBS+PBS) or PSA either: 1) prior to disease induction (pre-TNBS+PSA) or 2) following rectal TNBS administration (post-TNBS+PSA).
PSA protection from experimental IBD requires TLR2 signaling. Multiple studies have implicated TLR signaling by innate immune cells during inflammatory disease. […] Wild-type (WT) or TLR2−/− animals were orally treated with PSA or PBS prior to induction of TNBS colitis. […] In contrast, TLR2−/− mice treated with PSA had marked inflammation including thickening of the mucosa, infiltrating leukocytes and crypt loss (FIG. 3A). […] As previously reported, WT animals were protected from colitis by PSA.

[2] = system: proliferation of CD4+CD25- responder T cells; test: in vitro suppression assay with CD4+CD25+ Tregs from MLNs of treated mice; format: cell-based; settings: Tregs from PSA fed mice (TNBS+PSA) vs untreated animals, FIG. 2B
Experimental: as §3, §4

Cyp27b1 = test: qRT-PCR of Cyp27b1 in bone marrow-derived dendritic cells treated with PSA; format: cell-based, mice; settings: FIG. 6A
Experimental: as §1
Vitamin D enhances PSA-mediated induction of mouse and human Tregs. As outlined above, the ability of PSA to protect against IBD in mice involves the gut-specific conversion of CD4+ cell into IL-10-secreting Foxp3+ Tregs. We hypothesize that vitamin D may play a pivotal role in this process, given our novel finding that PSA induces the vitamin D-activating machinery in mice (see FIG. 5C). […]

[3] = PSA following the onset of disease, data not shown

## 25-hydroxyvitamin D [25D, reference compound]
CD4+Foxp3+ T cells; co-treatment of WT BMDCs with PSA and 25D
  effect on PSA-induced increase of CD4+Foxp3+ T cells: further enhanced

## TGFβ [reference compound]
[1]; co-culture with or without TGFβ
  effect on PSA-induced Tregs: does not further enhance

## polysaccharide A [PSA]
TNBS colitis; PSA following rectal TNBS administration (post-TNBS+PSA)
  colitis disease score: prevented the development of disease with equal efficacy
TNBS colitis; [3]
  Foxp3 expression by gut CD4+ T cells: increased
  IL-10 expression by gut CD4+ T cells: increased
TNBS colitis; PSA prior to disease induction (pre-TNBS+PSA)
  colitis disease score: prevented the development of disease with equal efficacy
TNBS colitis; PSA-treated vs PBS or non-colitic animals, data not shown
  absolute number of CD4+CD25+Foxp3+ cells in the MLNs: significantly higher
TNBS colitis; TLR2-/- animals
  IL-10 expression in MLNs (qRT-PCR): no longer up-regulated
TNBS colitis; TLR2-/- animals, oral PSA prior to TNBS vs PBS, FIG. 3B
  protection from colitis (colitis score): not protected
TNBS colitis; TLR2-/- animals, relative to PBS controls, FIG. 3D
  percentage of CD4+Foxp3+ Tregs: no differences
TNBS colitis; TLR2-/- mice, PSA compared to PBS
  IL-17 levels in MLNs (qRT-PCR): increased
TNBS colitis; TNBS+PSA vs TNBS+PBS, FIG. 2A
  percentage of Foxp3+ cells within the CD4+CD25+ compartment of the MLNs: increases
TNBS colitis; WT animals
  IL-10 expression in MLNs (qRT-PCR): induced
  IL-17 levels in MLNs (qRT-PCR): Suppression
TNBS colitis; WT animals, oral PSA prior to TNBS, FIG. 3A/B
  protection from colitis (histopathology, colitis score): protected from disease
TNBS colitis; WT mice, MLNs, FIG. 3 note
  increase of CD4+CD25+Foxp3+ Treg proportions: ~25%
TNBS colitis; during both protection and cure of colitis, data not shown
  pro-inflammatory Th17 cells: significant decrease
[2]
  suppression of T cell proliferation by Tregs from MLNs: suppressed T cell proliferation to a significantly higher level
Cyp27b1; DCs from TLR2-/- mice
  induction of Cyp27b1 expression: greatly diminished
Cyp27b1; WT BMDC, PSA vs PBS control
  induction of Cyp27b1 expression: 5 fold
CD4+Foxp3+ T cells; WT BMDCs treated with PSA, over media controls
  proportions of CD4+Foxp3+ T cells in culture: increases
[1]; human monocytes treated with purified PSA or vehicle
  Foxp3 expression in human Tregs (MFI among CD4+CD25+ T cells): promotes Foxp3 expression
